Test results: patent US6548517B2, “Oxindole inhibitors of factor Xa” (Millennium Pharmaceuticals, Inc., priority 2000, dated 2003)

How the values were obtained:
Format in all cases: biochemical
KALLIKREIN = assay: kallikrein protease inhibition assay
PLASMIN = PLASMIN (Homo sapiens, UniProt P00747); assay: plasmin protease inhibition assay
thrombin = biological target: T1, thrombin (Homo sapiens, UniProt P00734); assay: thrombin amidolytic assay (Chromozym TH); conditions: read-out: IIA IC50
T1 construct: proteolytic cleavage of its precursor prothrombin at the Arg-Thr linkage at positions 271-272 and the Arg-Ile linkage at positions 320-321
Procedure: (§1) The compounds of the present invention are dissolved in buffer to give solutions containing concentrations such that assay concentrations range from 0 to 100 μM. In the assays for thrombin, prothrombinase and factor Xa, a synthetic chromogenic substrate is added to a solution containing test compound and the enzyme of interest and the residual catalytic activity of that enzyme is determined spectrophotometrically. The IC50 of a compound is determined from the substrate turnover. The IC50 is the concentration of test compound giving 50% inhibition of: the substrate turnover.
(§2) The factor Xa and thrombin assays were performed at room temperature, in 0.02 M TrisHCl buffer, pH 7.5, containing 0.15 M NaCl. The rates of hydrolysis of the para-nitroanilide substrate S-2765 (Chromogenix) for factor Xa, and the substrate Chromozym TH (Boehringer Mannheim) for thrombin following preincubation of the enzyme with inhibitor for 5 minutes at room temperature, and were determined using the Softmax 96-well plate reader (Molecular Devices), monitored at 405 nm to measure the time dependent appearance of p-nitroaniline.

TPA = TPA (Homo sapiens, UniProt P00750); assay: TPA protease inhibition assay
TPA, sequence (P00750 36-562, species assumed): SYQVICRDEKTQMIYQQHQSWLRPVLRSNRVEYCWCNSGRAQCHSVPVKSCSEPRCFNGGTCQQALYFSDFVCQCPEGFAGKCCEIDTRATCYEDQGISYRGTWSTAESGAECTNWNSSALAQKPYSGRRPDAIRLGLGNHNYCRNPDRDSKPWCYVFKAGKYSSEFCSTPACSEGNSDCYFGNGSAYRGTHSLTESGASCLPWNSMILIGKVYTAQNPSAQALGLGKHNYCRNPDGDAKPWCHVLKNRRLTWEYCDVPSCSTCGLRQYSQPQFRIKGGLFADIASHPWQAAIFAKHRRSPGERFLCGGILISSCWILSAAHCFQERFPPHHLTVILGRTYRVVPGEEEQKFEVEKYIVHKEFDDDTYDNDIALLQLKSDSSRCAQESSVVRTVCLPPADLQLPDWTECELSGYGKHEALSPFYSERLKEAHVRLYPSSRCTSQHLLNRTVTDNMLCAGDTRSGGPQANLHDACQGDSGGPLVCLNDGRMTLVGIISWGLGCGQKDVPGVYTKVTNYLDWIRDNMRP

prothrombinase complex = prothrombinase complex (Homo sapiens, UniProt P00742); assay: prothrombinase inhibition assay, plasma free system; conditions: read-out: IIASE IC50
prothrombinase complex, sequence (P00742 235-488 limits assumed): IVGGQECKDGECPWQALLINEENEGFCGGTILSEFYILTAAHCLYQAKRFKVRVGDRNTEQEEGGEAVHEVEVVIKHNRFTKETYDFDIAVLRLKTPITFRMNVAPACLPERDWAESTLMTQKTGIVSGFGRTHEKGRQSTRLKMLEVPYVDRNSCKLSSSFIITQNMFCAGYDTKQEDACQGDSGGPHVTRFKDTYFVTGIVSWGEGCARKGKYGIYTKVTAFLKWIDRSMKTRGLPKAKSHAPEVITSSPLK
prothrombinase complex, sequence (P00742 41-179 limits assumed): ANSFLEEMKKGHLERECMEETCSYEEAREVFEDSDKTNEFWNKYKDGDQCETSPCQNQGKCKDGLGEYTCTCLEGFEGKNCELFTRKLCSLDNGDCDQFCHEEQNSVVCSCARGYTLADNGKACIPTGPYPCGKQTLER
prothrombinase complex, sequence (P12259 29-737 partner limits assumed): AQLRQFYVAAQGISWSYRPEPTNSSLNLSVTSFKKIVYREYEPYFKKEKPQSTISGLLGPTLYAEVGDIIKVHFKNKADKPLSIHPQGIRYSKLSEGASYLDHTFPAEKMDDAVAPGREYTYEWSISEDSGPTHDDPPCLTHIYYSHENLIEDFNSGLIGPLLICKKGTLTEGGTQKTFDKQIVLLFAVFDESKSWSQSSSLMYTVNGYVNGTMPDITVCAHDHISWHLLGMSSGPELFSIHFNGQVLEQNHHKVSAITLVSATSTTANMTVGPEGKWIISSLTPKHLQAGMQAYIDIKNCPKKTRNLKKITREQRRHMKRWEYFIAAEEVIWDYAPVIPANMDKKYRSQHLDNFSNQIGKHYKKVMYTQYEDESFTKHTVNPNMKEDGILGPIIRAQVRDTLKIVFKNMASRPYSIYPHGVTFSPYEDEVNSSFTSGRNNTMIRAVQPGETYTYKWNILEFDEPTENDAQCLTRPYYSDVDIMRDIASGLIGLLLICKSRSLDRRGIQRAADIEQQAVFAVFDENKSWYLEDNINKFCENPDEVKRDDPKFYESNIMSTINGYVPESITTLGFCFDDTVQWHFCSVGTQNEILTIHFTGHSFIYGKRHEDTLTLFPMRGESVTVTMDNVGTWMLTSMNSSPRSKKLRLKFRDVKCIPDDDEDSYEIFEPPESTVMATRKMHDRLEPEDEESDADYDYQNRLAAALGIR
prothrombinase complex, sequence (P12259 1574-2224 partner limits assumed): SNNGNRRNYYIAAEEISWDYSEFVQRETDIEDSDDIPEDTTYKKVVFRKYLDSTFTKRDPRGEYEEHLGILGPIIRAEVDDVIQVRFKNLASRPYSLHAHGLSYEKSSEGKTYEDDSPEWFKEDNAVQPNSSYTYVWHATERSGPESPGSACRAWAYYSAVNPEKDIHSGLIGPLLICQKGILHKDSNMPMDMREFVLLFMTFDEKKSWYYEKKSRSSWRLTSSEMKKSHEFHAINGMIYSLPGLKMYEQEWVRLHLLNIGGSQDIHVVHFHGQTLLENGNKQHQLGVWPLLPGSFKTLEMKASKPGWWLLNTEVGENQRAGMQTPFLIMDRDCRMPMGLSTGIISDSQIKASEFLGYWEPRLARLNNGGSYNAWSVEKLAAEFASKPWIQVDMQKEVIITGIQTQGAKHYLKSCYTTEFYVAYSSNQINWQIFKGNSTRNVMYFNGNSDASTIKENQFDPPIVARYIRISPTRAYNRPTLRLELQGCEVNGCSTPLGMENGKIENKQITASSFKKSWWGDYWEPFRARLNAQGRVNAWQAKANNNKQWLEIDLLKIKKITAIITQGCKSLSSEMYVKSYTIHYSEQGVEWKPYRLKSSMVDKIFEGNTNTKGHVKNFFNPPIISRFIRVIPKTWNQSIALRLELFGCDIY
Procedure: as §1
The prothrombinase inhibition assay was performed in a plasma free system with modifications to the method described by Sinha, U. et al., Thromb. Res., 75, 427-436 (1994). Specifically, the activity of the prothrombinase complex was determined by measuring the time course of thrombin generation using the p-nitroanilide substrate Chromozym TH. The assay consists of preincubation (5 minutes) of selected compounds to be tested as inhibitors with the complex formed from factor Xa (0.5 nM), factor Va (2 nM), phosphatidyl serine:phosphatidyl choline (25:75, 20 μM) in 20 mM TrisHCI buffer, pH 7.5, containing 0.15 M NaCl, 5 mM CaCl2 and 0.1% bovine serum albumin. Aliquots from the complex-inhibitor mixture were added to prothrombin (1 nM) and Chromozym TH (0.1 mM). The rate of substrate cleavage was monitored at 405 nm for two minutes. Eight different concentrations of inhibitor were assayed in duplicate. A standard curve of thrombin generation by an equivalent amount of untreated complex was used for determination of percent inhibition.

APC = APC (Homo sapiens, UniProt P04070); assay: APC protease inhibition assay
APC, sequence (P04070 212-461 limits assumed): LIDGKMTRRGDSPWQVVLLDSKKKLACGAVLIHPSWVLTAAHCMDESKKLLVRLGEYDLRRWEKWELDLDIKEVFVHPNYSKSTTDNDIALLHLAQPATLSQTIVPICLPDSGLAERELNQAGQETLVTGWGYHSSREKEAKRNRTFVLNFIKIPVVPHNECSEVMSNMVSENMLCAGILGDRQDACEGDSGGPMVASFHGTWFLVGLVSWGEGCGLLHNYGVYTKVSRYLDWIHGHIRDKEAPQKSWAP
APC, sequence (P04070 43-197 limits assumed): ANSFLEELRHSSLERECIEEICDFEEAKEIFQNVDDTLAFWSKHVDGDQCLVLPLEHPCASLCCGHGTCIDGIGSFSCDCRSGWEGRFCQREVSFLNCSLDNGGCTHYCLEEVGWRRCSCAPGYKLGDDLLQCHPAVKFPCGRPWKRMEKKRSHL

TRYPSIN = biological target: T2, TRYPSIN (Bos taurus, UniProt P00760); assay: trypsin protease inhibition assay
T2 construct: gene PRSS1
T2 sequence (P00760 24-246): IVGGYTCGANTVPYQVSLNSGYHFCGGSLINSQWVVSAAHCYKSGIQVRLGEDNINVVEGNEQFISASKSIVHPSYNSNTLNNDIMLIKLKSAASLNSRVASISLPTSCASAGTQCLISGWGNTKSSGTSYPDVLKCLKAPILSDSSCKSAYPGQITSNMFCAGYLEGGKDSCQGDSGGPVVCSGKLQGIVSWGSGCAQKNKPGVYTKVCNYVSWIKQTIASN

factor Xa = factor Xa (Homo sapiens, UniProt P00742); assay: factor Xa amidolytic assay (chromogenic substrate S-2765)
factor Xa, sequence (P00742 235-488 limits assumed): as the sequence (P00742 235-488 limits assumed) above
factor Xa, sequence (P00742 41-179 limits assumed): as the sequence (P00742 41-179 limits assumed) above
Procedure: as §1, §2

PLASMIN, sequence (P00747 581-810 limits assumed, species assumed): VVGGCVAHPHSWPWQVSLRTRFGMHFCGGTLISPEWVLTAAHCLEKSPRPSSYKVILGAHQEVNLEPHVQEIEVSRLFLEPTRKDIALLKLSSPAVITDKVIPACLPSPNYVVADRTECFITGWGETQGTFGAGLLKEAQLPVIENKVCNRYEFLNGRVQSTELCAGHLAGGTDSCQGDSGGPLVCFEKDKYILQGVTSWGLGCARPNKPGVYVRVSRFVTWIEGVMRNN
PLASMIN, sequence (P00747 97-580 limits assumed, species assumed): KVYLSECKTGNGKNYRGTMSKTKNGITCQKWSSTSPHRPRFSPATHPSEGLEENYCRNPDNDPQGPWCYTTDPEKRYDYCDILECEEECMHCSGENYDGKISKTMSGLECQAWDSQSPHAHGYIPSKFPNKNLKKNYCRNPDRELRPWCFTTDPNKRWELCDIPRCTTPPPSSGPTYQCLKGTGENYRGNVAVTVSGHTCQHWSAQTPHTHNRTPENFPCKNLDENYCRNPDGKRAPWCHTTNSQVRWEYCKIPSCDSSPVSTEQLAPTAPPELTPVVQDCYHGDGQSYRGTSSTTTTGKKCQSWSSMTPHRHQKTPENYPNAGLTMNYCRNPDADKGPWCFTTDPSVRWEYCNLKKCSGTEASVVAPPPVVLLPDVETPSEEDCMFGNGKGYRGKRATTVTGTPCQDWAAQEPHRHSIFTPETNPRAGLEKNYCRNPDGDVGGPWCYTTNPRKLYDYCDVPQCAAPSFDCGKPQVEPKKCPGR

Row | SMILES | IC50 (KALLIKREIN) [nM] | IC50 (PLASMIN) [nM] | IC50 (thrombin) [µM] | IC50 (TPA) [µM] | IC50 (prothrombinase complex) [nM] | IC50 (APC) [nM] | IC50 (TRYPSIN) [nM] | IC50 (factor Xa) [nM]
1 | CC(=N)N1CCC(Oc2ccc3c(c2)C(C)(C)C(=O)N3Cc2ccc3ccc(C(=N)N)cc3c2)CC1 [Example 4] | 606 | 2210 | 6.97 | 17.9 | 163 | 848 | 13.5 | 40.2
2 | CC1(C)C(=O)N(Cc2ccc3ccc(C(=N)N)cc3c2)c2ccc(OC3CCN(C(=N)N)CC3)cc21 [Example 5] | 535 | 1410 | 4.53 | 19.5 | 264 | 683 | 6.39 | 72.5
3 | CC(C)C1C(=O)N(Cc2ccc3ccc(C(=N)N)cc3c2)c2ccc(OC3CCN(C(=N)N)CC3)cc21 (stereo not shown) [Example 7] | 440 | 734 | 4.26 | 27.9 | 116 | 549 | 3.47 | 28.4
4 | CC(=N)N1CCC(Oc2ccc3c(c2)C(C(C)C)C(=O)N3Cc2ccc3ccc(C(=N)N)cc3c2)CC1 (stereo not shown) [Example 8] | 334 | 628 | 4.71 | 18.1 | 36.3 | 389 | 4.92 | 18.7
5 | CC(=N)N1CCC(Oc2ccc3c(c2)/C(=C/C(=O)O)C(=O)N3Cc2ccc3ccc(C(=N)N)cc3c2)CC1 [Example 12] | 2420 | 1250 | 240 | 62.1 | 117 | 6660 | 28.6 | 17.4
6 | CC(=N)N1CCC(Oc2ccc3c(c2)C(CC(=O)O)C(=O)N3Cc2ccc3ccc(C(=N)N)cc3c2)CC1 (stereo not shown) [Example 13] | 1590 | 2130 | 500 | 37 | 90.4 | 9940 | 140 | 53.6

Compounds with a lower IC50 (KALLIKREIN), results first:

Row | IC50 (KALLIKREIN) [nM] | IC50 (PLASMIN) [nM] | IC50 (thrombin) [µM] | IC50 (TPA) [µM] | IC50 (prothrombinase complex) [nM] | IC50 (APC) [nM] | IC50 (TRYPSIN) [nM] | IC50 (factor Xa) [nM] | SMILES
7 | 307 | 2460 | 72.5 | 18.3 | 504 | 5180 | 62.1 | 13 | CC(=N)N1CCC(Oc2ccc3c(c2)CC(=O)N3Cc2ccc3ccc(C(=N)N)cc3c2)CC1 [Example 1]
8 | 304 | 880 | 19.5 | 28.5 | 19.8 | 3060 | 17.6 | 15.1 | CC(C)=C1C(=O)N(Cc2ccc3ccc(C(=N)N)cc3c2)c2ccc(OC3CCN(C(=N)N)CC3)cc21 [Example 6]
9 | 128 | 319 | 28 | 26.6 | 8.4 | 954 | 8.1 | 2.82 | CC(=N)N1CCC(Oc2ccc3c(c2)/C(=C/c2ccccc2)C(=O)N3Cc2ccc3ccc(C(=N)N)cc3c2)CC1 [Example 9]
10 | 201 | 407 | 20 | 38.5 | 19.3 | 1550 | 10.4 | 5.92 | CC(=N)N1CCC(Oc2ccc3c(c2)/C(=C/c2ccc(F)cc2)C(=O)N3Cc2ccc3ccc(C(=N)N)cc3c2)CC1 [Example 10]
11 | 259 | 309 | 16.1 | 28.7 | 17.4 | 1480 | 30.3 | 5.76 | CC(=N)N1CCC(Oc2ccc3c(c2)/C(=C/c2ccc(Cl)cc2)C(=O)N3Cc2ccc3ccc(C(=N)N)cc3c2)CC1 [Example 11]
